In patent US8524755B2 (priority 2009, dated 2013):

Assays:
Adenosine A1 (h) = molecular target: T1, Adenosine A1 (h) (Homo sapiens, UniProt P30542); assay: Binding A1 (h) (aa); conditions: read-out: % Inhibition of Control Specific Binding @ 10 μM
T1 construct: expressed in transfected cells; host or cells: CHO cells
T1 sequence (P30542 1-326): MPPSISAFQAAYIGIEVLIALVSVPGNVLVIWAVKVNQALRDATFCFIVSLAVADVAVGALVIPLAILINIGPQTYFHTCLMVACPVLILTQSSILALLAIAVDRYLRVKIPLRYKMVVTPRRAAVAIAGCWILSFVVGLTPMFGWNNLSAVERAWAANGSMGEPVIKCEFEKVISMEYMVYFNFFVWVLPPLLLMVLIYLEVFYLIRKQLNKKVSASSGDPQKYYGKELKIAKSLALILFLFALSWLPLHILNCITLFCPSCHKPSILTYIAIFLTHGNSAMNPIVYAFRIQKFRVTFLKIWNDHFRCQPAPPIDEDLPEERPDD
Protocol: (§1) Radioligand binding assay methods utilized to measure the activity of compounds of the invention will be familiar to those skilled in the art. In each assay case, the assay components such as, for example, the cell-type, ligand, reference compound and the like, will be familiar to practitioners of such an assay.
(§2) Analysis and Expression of Results: Compounds of the invention were tested in the biochemical assays and percent inhibition of specific binding was determined. The specific ligand binding to the receptors is defined as the difference between the total binding and the nonspecific binding determined in the presence of an excess of unlabelled ligand. The results are expressed as a percent inhibition of control specific binding (100−((measured specific binding/control specific binding)×100)) obtained in the presence of test compounds.

Bradykinin B1 (h) = molecular target: T2, Bradykinin B1 (h) (Homo sapiens, UniProt P46663); assay: Binding B1 (h) (ag); conditions: read-out: % Inhibition of Control Specific Binding @ 10 μM
T2 construct: expressed in transfected cells; host or cells: CHO cells
T2 sequence (P46663 1-353): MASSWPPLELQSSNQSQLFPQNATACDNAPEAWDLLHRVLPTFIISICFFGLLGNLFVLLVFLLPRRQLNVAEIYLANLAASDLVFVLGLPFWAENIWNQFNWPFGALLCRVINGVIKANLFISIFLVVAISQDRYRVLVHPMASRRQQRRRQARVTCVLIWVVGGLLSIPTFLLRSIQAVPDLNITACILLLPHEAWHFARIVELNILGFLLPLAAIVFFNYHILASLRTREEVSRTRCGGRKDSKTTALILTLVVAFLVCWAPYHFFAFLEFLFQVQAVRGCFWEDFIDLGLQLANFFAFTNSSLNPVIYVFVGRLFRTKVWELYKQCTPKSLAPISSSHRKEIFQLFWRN
Protocol: as §1, §2

Dopamine D4.4 (h) = molecular target: T3, Dopamine D4.4 (h) (Homo sapiens, UniProt P21917); assay: Binding D4.4 (h) (aa); conditions: read-out: % Inhibition of Control Specific Binding @ 10 μM
T3 construct: expressed in transfected cells; host or cells: CHO cells
T3 sequence (P21917 1-419): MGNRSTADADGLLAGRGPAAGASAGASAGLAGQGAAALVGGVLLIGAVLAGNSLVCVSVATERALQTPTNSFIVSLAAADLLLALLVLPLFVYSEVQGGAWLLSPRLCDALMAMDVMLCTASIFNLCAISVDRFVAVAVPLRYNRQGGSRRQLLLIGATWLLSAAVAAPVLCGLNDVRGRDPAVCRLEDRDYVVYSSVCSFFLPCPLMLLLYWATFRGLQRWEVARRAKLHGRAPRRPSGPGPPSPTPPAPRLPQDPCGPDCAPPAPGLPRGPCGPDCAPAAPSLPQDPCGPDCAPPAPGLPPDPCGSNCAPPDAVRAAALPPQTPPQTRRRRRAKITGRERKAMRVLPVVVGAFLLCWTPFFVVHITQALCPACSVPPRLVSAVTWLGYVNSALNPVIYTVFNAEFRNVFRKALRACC
Protocol: as §1, §2

Progesterone PR (h) = assay: Binding PR (h) (ag); design: species or system human
Protocol: as §1, §2

Thyroid hormone TR (TH) = assay: Binding TR (TH) (ag); design: species or system rat
Protocol: as §1, §2

Vasopressin V2 (h) = molecular target: T4, Vasopressin V2 (h) (Homo sapiens, UniProt P30518); assay: Binding V2 (h) (ag); conditions: read-out: % Inhibition of Control Specific Binding @ 10 μM
T4 construct: expressed in transfected cells; host or cells: CHO cells
Protocol: as §1, §2

COMT = assay: Enzyme assay COMT; assay type: biochemical, porcine
Excerpt: The enzyme assays provided below will be familiar to those skilled in the art.
Analysis and Expression of Results: The results are expressed as a percent of control specific activity ((measured specific activity/control specific activity)×100) obtained in the presence of the test compounds.

[1] = Quantification of RD162′ metabolites in human plasma; assay type: in vivo; conditions: for Concentrations in Patients' Plasma Expressed as a Percentage of the Concentration of RD162′, Average / Concentrations in Patients' Plasma Expressed as a Percentage of the Concentration of RD162′, Maximum / Concentrations in Patients' Plasma Expressed as a Percentage of the Concentration of RD162′, Minimum: 18 patients; for Concentrations in Patients' Plasma Expressed as a Percentage of the Concentration of RD162′, Minimum: RD162′ 150 to 480 mg per day, approx. three months; for concentration in the plasma (in words): plasma of 18 prostate cancer patients on RD162′
Protocol: The method used to derive the above data was as follows. Electrospray LC/MS/MS Assay of RD162′ Metabolites ((MI), (MII), (MIII)):
Plasma Extraction Procedures for Concentration Determinations: A human plasma sample (50 μL) was added to a 10-mL glass tube. A 10-μL volume of IS stock solution was added to the tube, followed by addition of 1 M phosphate buffer at pH 3.0 (400 μL). The mixture was vortexed and […] (5 mL) was added. The tube was vortexed for 30 sec and then centrifuged at 4540 g for 10 min. The solvent was transferred to a glass tube and dried under air flow at 35-40° C. The sample was reconstituted with 100 μL of methanol: 0.1% formic acid in water (7:3) vortexed for 30 sec, and sonicated for 5 min. The sample was transferred to an HPLC sample vial and centrifuged at 4540 g for 5 min. A 20-μL volume was then injected onto an LC/MS/MS system for assay.
HP1100 LC Pump Initial Conditions: HPLC Column: ACE C18, 5 μM, 150×2.1 mm id. Solvents: A % 40.0; B % 60.0; C % 0.0; D % 0.0; Valve A set to channel 1; Valve B set to channel 1. Flow: 0.300 mL/min; Stop Time: 9.0 min; MM. Pressure: 0 bar; Max. Pressure: 300 bar; Oven Temperature Left: 30.0° C.; Oven Temperature Right: 30.0° C.
LC/MS/MS Parameters for RD162′ Metabolite (MI)
Instrument Parameters—Function 1: Polarity ES-; Data type: MRM data; Function type: MRM of 5 channels.
HPLC Column: ACE C18, 5 μM, 150×2.1 mm id; HP1100 LC Pump mode: Isocratic; Isocratic solvent conditions: A % 25.0; B % 75.0; C % 0.0; D % 0.0; Valve A set to channel 1; Valve B set to channel 1; Flow: 0.300 mL/min; Stop Time: 4.5 min; Min. Pressure: 0 bar; Max. Pressure: 300 bar: Oven Temperature Left: 30.0° C.; Oven Temperature Right: 30.0° C.

T4 sequence (P30518 whole entry): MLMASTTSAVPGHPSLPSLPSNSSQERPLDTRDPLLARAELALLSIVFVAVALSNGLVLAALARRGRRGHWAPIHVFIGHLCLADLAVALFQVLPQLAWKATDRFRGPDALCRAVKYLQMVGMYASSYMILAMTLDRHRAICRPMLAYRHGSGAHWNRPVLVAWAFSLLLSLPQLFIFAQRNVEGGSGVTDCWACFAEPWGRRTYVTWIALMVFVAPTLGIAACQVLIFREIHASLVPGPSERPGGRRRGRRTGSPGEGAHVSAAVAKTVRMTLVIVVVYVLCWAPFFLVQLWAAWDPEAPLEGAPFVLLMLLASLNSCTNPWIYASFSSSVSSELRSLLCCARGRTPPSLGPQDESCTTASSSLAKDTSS

Compound | inhibition at 10 µM (Adenosine A1 (h)) [%] | inhibition at 10 µM (Bradykinin B1 (h)) [%] | inhibition at 10 µM (Dopamine D4.4 (h)) [%] | % Inhibition of Control Specific Binding @ 10 μM (Progesterone PR (h)) [%] | % Inhibition of Control Specific Binding @ 10 μM (Thyroid hormone TR (TH)) [%] | inhibition at 10 µM (Vasopressin V2 (h)) [%] | % Inhibition of Control Values @ 10 μM (COMT) [%] | Concentrations in Patients' Plasma Expressed as a Percentage of the Concentration of RD162′, Average [1] [%] | Concentrations in Patients' Plasma Expressed as a Percentage of the Concentration of RD162′, Maximum [1] [%] | Concentrations in Patients' Plasma Expressed as a Percentage of the Concentration of RD162′, Minimum [1] [%] | concentration in the plasma (in words) [1]
CC1(C)C(=O)N(c2ccc(C#N)c(C(F)(F)F)c2)C(=O)N1c1ccc(C(N)=O)c(F)c1 [(MIII), 4-(3-(4-cyano-3-(trifluoromethyl)phenyl)-5,5-dimethyl-2,4-dioxoimidazolidin-1-yl)-2-fluorobenzamide] | 2 | 5 | 13 | 8 | −9 | 4 | −1 | 4 | 14 | 1 | low concentrations
CC1(C)C(=O)N(c2ccc(C#N)c(C(F)(F)F)c2)C(=S)N1c1ccc(C(=O)O)c(F)c1 [(MI), 4-(3-(4-cyano-3-(trifluoromethyl)phenyl)-5,5-dimethyl-4-oxo-2-thioxoimidazolidin-1-yl)-2-fluorobenzoic acid] | 10 | 0 | 1 | 23 | −7 | 5 | 1 | 60 | 259 | 16 | high concentrations
CNC(=O)c1ccc(N2C(=O)N(c3ccc(C#N)c(C(F)(F)F)c3)C(=O)C2(C)C)cc1F [(MIV), 4-(3-(4-cyano-3-(trifluoromethyl)phenyl)-5,5-dimethyl-2,4-dioxoimidazolidin-1-yl)-2-fluoro-N-methylbenzamide] | 6 | 4 | -15 | 11 | −2 | -1 | 0 |  |  |  | 
CC1(C)C(=O)N(c2ccc(C#N)c(C(F)(F)F)c2)C(=S)N1c1ccc(C(N)=O)c(F)c1 [(MII), 4-(3-(4-Cyano-3-(trifluoromethyl)phenyl)-5,5-dimethyl-4-oxo-2-thioxoimidazolidin-1-yl)-2-fluorobenzamide] | 9 | 6 | 9 | 74 | 0 | 3 | −1 | 112 | 204 | 49 | high concentrations
